Data set [1] has as its system reactive oxygen species (ROS) within cells. As to the kind of experiment: CellROX Deep Red assay of cellular oxidative stress after H2O2 treatment. It counts as cell-based. The settings on record: for effect on CellROX fluorescence / oxidation (in words): 1 mM H2O2 for 30 min, then CellROX Deep Red, transfected cells in substrate-supplemented media, or supplemented media alone. As for the experimental part:
Cells were exposed to 1 mM H2O2 for 30 min before incubation with CellROX Deep Red. Blank: untransfected cells. F: ferulic acid-supplemented media. P: p-courmaric acid-supplemented media. pGL3: luciferase-encoding plasmid.
Additionally, the antioxidant potential of heterologously produced curcuminoids was investigated using CellROX Deep Red (Invitrogen, Carlsbad, Calif.), a fluorogenic probe for cellular oxidative stress. The cell-permeable CellROX dye is non-fluorescent in its reduced state but becomes highly fluorescent upon oxidation by reactive oxygen species (ROS) within cells. Cells were treated with 1 mM H2O2 to induce oxidative stress and subsequently incubated with CellROX before quantifying the resulting fluorescence (FIG. 11).

In data set [2] the test system is radiation-induced oral mucositis. The experiment in a line: Syrian hamster model of radiation-induced oral mucositis. The conditions noted are these: sustained presence of curcumin from in vivo biosynthesis, versus irradiated hamsters without treatment or with positive control; 60 Gy. The text has this: Briefly, the hamster is anesthetized, the left cheek pouch is clamped between acrylic sheets to hold it in place, and each cheek pouch is exposed to 60 Gy total irradiation in a linear accelerator (LINAC). The use of the LINAC system provides gamma radiation exposure, is clinically relevant, and provides tight control of the radiation dose, reducing animal-to-animal exposure differences. For up to three weeks after irradiation, the hamsters is weighed daily and cheeks extracted to evaluate injury based on a well-established, validated scale (Table 2).
Equal numbers of male and female hamsters are randomly divided into groups (n=8). Negative controls comprise non-irradiated, non-treated; nonirradiated, treated; and irradiated, nontreated groups. […] The treatment groups are determined based on the curcuminoid production levels, bioavailability, and duration of production achievable in the in vivo systems described above. A preferred treatment is animals stably producing curcuminoids following AAV8-mediated transfection of liver and providing therapeutically relevant curcuminoid concentrations in circulation. The primary alternative is local AAV-mediated transfection of tissues in the cheek pouch. Another alternative approach is HEK293-ddCCM or HEK-CCM cells encapsulated in lysine/alginate spheres and implanted s.c. or i.p. in tissue cages.

The conditions of data set [3]: in vivo; cited from earlier work.
The conditions of data set [4]: cited from earlier work.

Turning to `COc1cc(/C=C/C(=O)CC(=O)/C=C/c2ccc(O)c(OC)c2)ccc1O` [CCM, curcumin], the “reduction in CellROX fluorescence” value in data set [1] (cells producing CCM from ferulic acid (4CL1/DCS/CURS1), 1 mM H2O2 for 30 min before CellROX Deep Red) is listed as 37%. Further, the “severity and duration of OM” value in data set [2] is “significantly reduces severity and duration of OM”. For the same compound, the oral bioavailability in data set [3] is reported as approximately 1%. Moreover, in data set [4], the half-life in plasma entry is reported as “relatively short”.
In the case of `COc1cc(/C=C/C(=O)O)ccc1O` [ferulic acid], the “effect on CellROX fluorescence / oxidation (in words)” value in data set [1] is “Neither the presence of p-coumaric acid nor ferulic acid, nor transfection with pGL3 (encoding luciferase), had any effect”.
Turning to `O=C(O)/C=C/c1ccc(O)cc1` [p-coumaric acid], the “effect on CellROX fluorescence / oxidation (in words)” value in data set [1] is reported as “Neither the presence of p-coumaric acid nor ferulic acid, nor transfection with pGL3 (encoding luciferase), had any effect”.

The record behind these values is US11932897B2, “Biosynthesis of curcuminoids in mammalian cells” (University of Kentucky Research Foundation, priority 2018, dated 2024).
